Experimental data reported in publication PMC4658348 (ACS chemical biology, 2015).

Tests used:
Format in all cases: biochemical
[1] = target: T1, vacuolar-type ATPase (V-ATPase) (Saccharomyces cerevisiae, UniProt P25515+P32563); assay: enzyme-coupled ATPase assay
human HSP90α = human HSP90α (Homo sapiens, UniProt P07900); assay: ATP/NADH-coupled ATPase assay
[2] = target: T1, vacuolar-type ATPase (V-ATPase); assay: enzyme-coupled ATPase assay; remark: listed apart in the source

| SMILES | IC50 [1] [µM] | IC50 (human HSP90α) [µM] | enzyme-coupled ATPase assay (NADH loss) with purified V-ATPase [2] |
| --- | --- | --- | --- |
| CC[C@@H](O)[C@H](C)/C=C/C(=O)[C@@H](C)[C@H](O)[C@H](C)[C@H]1OC(=O)/C(C)=C/C(C)=C/[C@@H](C)[C@@H](O)[C@@H](C)C/C(C)=C/C=C/[C@@H]1OC [oxohygrolidin] | ~0.25 | ~50 | – |
| CO/C1=C\C(C)=C\[C@@H](C)[C@@H](O)[C@@H](C)C/C(C)=C/C=C/[C@H](OC)[C@@H]([C@@H](C)[C@@H](O)[C@H](C)[C@@]2(O)C[C@@H](O)[C@H](C)[C@@H](C(C)C)O2)OC1=O [bafilomycin A1] | – | – | Oxohygrolidin (black bar) inhibited V-ATPase comparable to the plecomacrolides, bafilomycin A1(dotted bar), and concanamycin A (hatched bar) |
